{
  "source": "patent US11078181B2",
  "about": "“Diaryl pyrazole compound and formulation for controlling harmful organisms” (Nippon Soda Co., Ltd., priority 2016, dated 2021)",
  "assay_type_in_all_cases": "in vivo",
  "key": {"Nilaparvata lugens": {"test_system": "Nilaparvata lugens", "test": "Efficacy test against Nilaparvata lugens (rice seedling dip)", "details": "168 h, rice seedlings soaked, second-instar larvae, 7 days after inoculation, read-out: insect mortality rate", "protocol": "(§1) 5 parts of the compound of the present invention, 93.6 parts of dimethylformamide and 1.4 parts of polyoxyethylene alkyl aryl ether were mixed and dissolved to prepare Emulsion (I) including 5% of an active ingredient.\n(§2) An insect mortality rate and a controlling rate were calculated by the numerical equations shown below. Insect mortality rate(%)={(Number of dead insects)/(Number of sample insects)}×100 Controlling rate={1−(Nt)/(Nc)}×100 • wherein • Nt: number of parasites in spray-treated area; and • Nc: number of parasites in non-treated area\nEmulsion (I) was diluted with water so that the concentration of the compound of the present invention was 125 ppm. Rice seedlings were soaked in the diluted liquid for 30 seconds, and subjected to air-drying. Subsequently, the rice seedlings were placed in plastic cases, followed by inoculating 5 second-instar larvae of Nilaparvata lugens. The plastic cases were placed in a thermostatic chamber at a temperature of 25° C. and humidity of 65%. Mortality was investigated 7 days after inoculation, and the insect mortality rate was calculated. The test was performed twice."}, "Plutella xylostella": {"test_system": "Plutella xylostella", "test": "Efficacy test against Plutella xylostella (cabbage leaf dip)", "details": "foliar, 72 h, cabbage leaves soaked, second-instar larvae, 3 days after inoculation, read-out: insect mortality rate", "protocol": "as §1, §2\nEmulsion (I) was diluted with water so that the concentration of the compound of the present invention was 125 ppm. Cabbage leaves were soaked in the diluted liquid for 30 seconds. Subsequently, the cabbage leaves were put on Petri dishes, followed by inoculating 5 second-instar larvae of Plutella xylostella. The Petri dishes were placed in a thermostatic chamber at a temperature of 25° C. and humidity of 60%. Mortality was investigated 3 days after inoculation, and the insect mortality rate was calculated. The test was performed twice."}, "Aphis craccivora": {"test_system": "Aphis craccivora", "test": "Efficacy test against Aphis craccivora (black-eyed pea spray)", "details": "in Vigna unguiculata, 96 h, sprayed on black-eyed pea plants, nymphs, 4 days after spraying, read-out: insect mortality rate", "protocol": "as §1, §2\nBlack-eyed pea plants were raised in No. 3 pots and the primary leaves were inoculated with nymphs of Aphis craccivora. Emulsion (I) was diluted with water so that the concentration of the compound of the present invention was 125 ppm. Subsequently, the aforementioned diluted liquid was sprayed on the black-eyed pea plants on which the nymphs of Aphis craccivora were parasitic. The aforementioned black-eyed pea plants were then placed in a thermostatic chamber with a temperature of 25° C. and humidity of 60%. Mortality was investigated 4 days after spraying was carried out, and the insect mortality rate of Aphis craccivora was calculated. The test was performed twice."}, "[1]": {"test_system": "adult Phyllotreta striolata", "test": "Efficacy test against Phyllotreta striolata (bok-choi seedling spray)", "details": "168 h, sprayed on bok-choi seedlings, adults, 7 days after inoculation, read-out: insect mortality rate", "protocol": "as §1, §2\nEmulsion (I) was diluted with water so that the concentration of the compound of the present invention was 125 ppm, to prepare a diluted liquid for testing. The aforementioned diluted liquid was sprayed on bok-choi seedlings (7th major leaf-development period) planted in No. 3 pots. After the bok-choi seedlings were subjected to air-drying, the seedlings were placed in plastic cups, followed by inoculating 10 adult Phyllotreta striolata. […] Mortality was investigated 7 days after inoculation, and the insect mortality rate was calculated. […]\nEmulsion (I) was diluted with water so that the concentration of the compound of the present invention was 8 ppm, to prepare a diluted liquid for testing. […] Mortality was investigated 7 days after inoculation, and the insect mortality rate was calculated. […]"}, "Aphis gossypii": {"test_system": "Aphis gossypii", "test": "Efficacy test against Aphis gossypii (cucumber seedling spray)", "details": "96 h, sprayed on cucumber seedlings, nymphs, 4 days after spraying, read-out: insect mortality rate", "protocol": "as §1, §2\nEmulsion (I) was diluted with water so that the concentration of the compound of the present invention was 125 ppm. Cucumbers were raised in No. 3 pots and the first leaves were inoculated with nymphs of Aphis gossypii. The diluted emulsion mentioned above was sprayed onto the cucumber seedlings. The aforementioned cucumber seedlings were then placed in a thermostatic chamber with a temperature of 25° C. and humidity of 60%. Mortality was investigated 4 days after spraying was carried out, and the insect mortality rate of Aphis gossypii was calculated. The test was performed twice."}, "[2]": {"test_system": "first-instar larvae of Culex pipiens molestus", "test": "Efficacy test against Culex pipiens molestus (larvae in chemical liquid)", "details": "24 h, first-instar larvae in 100 mL chemical liquid, after one day, read-out: insect mortality rate", "protocol": "as §1, §2\nEmulsion (I) was diluted with water so that the concentration of the compound of the present invention was 10 ppm, to prepare a chemical liquid for testing. 20 first-instar larvae of Culex pipiens molestus were released in 100 mL of the chemical liquid. After one day, the number of dead insects was counted, and the insect mortality rate was calculated. The test was performed twice."}},
  "data": [
    {"smiles": "CCS(=O)(=O)c1ccc(-n2cncn2)nc1-n1ncc(-c2ccc(OC(F)(F)F)cc2)c1C", "note": "[1-1, 3-(ethylsulfonyl)-2-(5-methyl-4-(4-(trifluoromethoxy)phenyl)-1H-pyrazol-1-yl)-6-(1H-1,2,4-triazol-1-yl)pyridine]", "values": [
      {"measurement": "mortality at 125 ppm", "setting": "Nilaparvata lugens", "result": "≥ 80", "unit": "%"},
      {"measurement": "mortality at 125 ppm", "setting": "Plutella xylostella", "result": "≥ 80", "unit": "%"},
      {"measurement": "mortality at 125 ppm", "setting": "Aphis craccivora", "result": "≥ 80", "unit": "%"},
      {"measurement": "mortality at 8 ppm", "setting": "[1]; 8 ppm", "result": "≥ 80", "unit": "%"},
      {"measurement": "mortality at 125 ppm", "setting": "[1]; 125 ppm", "result": "≥ 80", "unit": "%"},
      {"measurement": "mortality at 125 ppm", "setting": "Aphis gossypii", "result": "≥ 80", "unit": "%"},
      {"measurement": "mortality at 10 ppm", "setting": "[2]", "result": 100, "unit": "%"}
    ]}
  ]
}
